Where two headings read alike, the source gives them in different places.
Key:
[1] = system: MCF-7 human breast cancer cell line; experiment: Alamar Blue assay for antiproliferative effects; type: cell-based; conditions: Homo sapiens, MCF7, 72 h, read-out: IC50 (μM), antiproliferative effects
MCF-7 cells [2] = experiment: Lactate dehydrogenase (LDH) assay for cytotoxicity
human ERα = molecular target: T1, human ERα (Homo sapiens, UniProt P03372); experiment: Estrogen receptor fluorescence polarisation competitive binding assay, ERα; conditions: for IC50: competitive binding, fluorescence polarisation, read-out: ERα IC50; for Selectivity (α/β): ratio of RBA values ERα relative to ERβ; for ERα RBA: relative binding affinity, estradiol (5.7 nM) = 100%
T1 construct: purchased Invitrogen
T1 sequence (P03372 1-595): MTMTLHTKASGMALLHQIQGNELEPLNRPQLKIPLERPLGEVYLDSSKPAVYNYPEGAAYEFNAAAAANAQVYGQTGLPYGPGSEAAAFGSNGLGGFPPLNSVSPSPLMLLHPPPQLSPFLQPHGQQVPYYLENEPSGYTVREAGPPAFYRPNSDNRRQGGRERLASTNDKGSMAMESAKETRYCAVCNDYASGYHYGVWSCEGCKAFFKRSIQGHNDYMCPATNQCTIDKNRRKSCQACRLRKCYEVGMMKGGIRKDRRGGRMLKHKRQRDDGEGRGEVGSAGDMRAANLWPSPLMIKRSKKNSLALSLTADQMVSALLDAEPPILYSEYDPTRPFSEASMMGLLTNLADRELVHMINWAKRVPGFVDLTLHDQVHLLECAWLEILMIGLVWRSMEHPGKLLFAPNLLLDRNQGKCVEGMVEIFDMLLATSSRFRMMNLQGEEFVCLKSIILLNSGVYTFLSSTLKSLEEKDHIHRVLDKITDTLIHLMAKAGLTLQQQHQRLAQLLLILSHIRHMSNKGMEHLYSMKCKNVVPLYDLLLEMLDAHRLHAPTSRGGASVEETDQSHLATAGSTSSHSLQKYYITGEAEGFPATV

human ERβ = molecular target: T2, human ERβ (Homo sapiens, UniProt Q92731); experiment: Estrogen receptor fluorescence polarisation competitive binding assay, ERβ; conditions: competitive binding, fluorescence polarisation; read-out: ERβ IC50
T2 construct: purchased Invitrogen
T2 sequence (Q92731 whole entry): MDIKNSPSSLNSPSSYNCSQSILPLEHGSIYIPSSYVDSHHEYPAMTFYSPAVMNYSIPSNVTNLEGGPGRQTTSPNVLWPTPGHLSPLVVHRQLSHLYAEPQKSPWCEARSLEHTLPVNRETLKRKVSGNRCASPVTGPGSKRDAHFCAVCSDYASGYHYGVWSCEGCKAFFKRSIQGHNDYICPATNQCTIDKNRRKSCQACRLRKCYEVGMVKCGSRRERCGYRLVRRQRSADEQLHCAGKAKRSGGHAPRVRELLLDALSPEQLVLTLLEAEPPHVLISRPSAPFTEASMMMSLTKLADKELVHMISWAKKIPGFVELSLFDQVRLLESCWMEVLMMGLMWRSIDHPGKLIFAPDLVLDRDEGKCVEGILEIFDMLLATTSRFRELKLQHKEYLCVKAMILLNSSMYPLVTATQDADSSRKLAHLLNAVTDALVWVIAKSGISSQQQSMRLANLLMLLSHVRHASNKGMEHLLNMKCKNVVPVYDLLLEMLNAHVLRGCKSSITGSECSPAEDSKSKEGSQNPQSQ

[3] = HPLC stability study in phosphate buffer
MCF-7 cells [4] = conditions: human
in vitro = conditions: plasma

| Structure (SMILES) | IC50 ([1]; MCF-7, 72 h, Alamar Blue) | cytotoxicity (LDH assay) (MCF-7 cells [2]) | IC50 (human ERα) | Selectivity (α/β) (human ERα) | ERα RBA (human ERα) | IC50 (human ERβ) | half-life at 14.6 µg/mL ([3]; half-life, pH range 4–9) | IC50 [1] | cytotoxicity (LDH assay) (MCF-7 cells [4]) | remained intact in plasma at 12 h | half-life (in vitro) | remained at 12 h ([3]; pH range 4–9, 12 h) |
| --- | --- | --- | --- | --- | --- | --- | --- | --- | --- | --- | --- | --- |
| COc1ccc(/C=C\c2cc(OC)c(OC)c(OC)c2)cc1O [CA4, Combretastatin A-4, reference compound] | 0.008 µM | 13% | – | – | – | – | – | – | – | – | – | – |
| CC/C(=C(\c1ccc(O)cc1)c1ccc(OCCNC)cc1)c1ccccc1 [Endoxifen] | 0.029 µM | 23% | 0.047 µM | 2.55 | 12.1% | 0.118 µM | – | – | – | – | – | – |
| CC/C(=C(\c1ccccc1)c1ccc(OCCN(C)C(=O)CCC(=O)Oc2cc(/C=C(/C(=O)OC)c3cc(OC)c(OC)c(OC)c3)ccc2OC)cc1)c1ccccc1 [Compound 16c, N-{2-[4-((Z)-1,2-Diphenylbut-1-enyl)phenoxy]ethyl}-N-methylsuccinamic acid 2-methoxy-5-[(E)-2-methoxycarbonyl-2-(3,4,5-trimethoxyphenyl)vinyl]phenyl ester] | – | – | 0.0709 µM | 1.29 | 8.04% | 0.0901 µM | > 20 h | – | – | – | – | – |
| CC/C(=C(\c1ccc(O)cc1)c1ccc(OCCN(C)C(=O)CCC(=O)Oc2cc(/C=C\c3cc(OC)c(OC)c(OC)c3)ccc2OC)cc1)c1ccccc1 [Compound 16b, N-(2-{4-[(Z)-1-(4-Hydroxyphenyl)-2-phenylbut-1-enyl]phenoxy}ethyl)-N-methyl succinamic acid 2-methoxy-5-[(Z)-2-(3,4,5-trimethoxyphenyl)vinyl]phenyl ester] | – | – | – | – | – | – | – | 0.0057 µM | 4.1% | 77% | > 48 h | > 90% |

Reference: paper PMC6151695, “Novel Selective Estrogen Receptor Ligand Conjugates Incorporating Endoxifen-Combretastatin and Cyclofenil-Combretastatin Hybrid Scaffolds: Synthesis and Biochemical Evaluation” (Molecules : A Journal of Synthetic Chemistry and Natural …, 2017)
